{"source": "BindingDB's records for doi:10.1021/jm9805642", "about": "(Pharmacia and Upjohn, 1999)"}
{"molecular_target": "Cytosol aminopeptidase (Sus scrofa) (UniProt P28839)", "sequence (P28839 whole entry, looked up)": "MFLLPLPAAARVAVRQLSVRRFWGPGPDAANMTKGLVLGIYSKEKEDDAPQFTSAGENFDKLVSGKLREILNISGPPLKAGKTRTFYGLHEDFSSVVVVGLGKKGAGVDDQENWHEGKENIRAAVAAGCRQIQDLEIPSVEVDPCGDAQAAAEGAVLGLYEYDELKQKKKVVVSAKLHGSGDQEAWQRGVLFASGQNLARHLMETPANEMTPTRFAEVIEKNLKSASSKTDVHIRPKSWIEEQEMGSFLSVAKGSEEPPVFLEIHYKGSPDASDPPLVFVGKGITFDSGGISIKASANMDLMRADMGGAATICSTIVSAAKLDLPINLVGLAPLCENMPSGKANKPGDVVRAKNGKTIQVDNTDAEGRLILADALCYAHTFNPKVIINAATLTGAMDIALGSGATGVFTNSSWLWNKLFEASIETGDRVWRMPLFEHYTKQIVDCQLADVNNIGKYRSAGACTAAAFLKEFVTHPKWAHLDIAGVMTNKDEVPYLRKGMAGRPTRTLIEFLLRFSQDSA", "experiment": "Inhibition against Leucyl aminopeptidase from pig kidney.", "units": {"IC50": "µM"}}
{"compound": "C[C@H](NC(=O)[C@@H]1CCCN1C(=O)C1CCCC1S)C(N)=O", "note": "(stereo partly drawn) [(S)-1-(2-Mercapto-cyclopentanecarbonyl)-pyrrolidine-2-carboxylic acid ((S)-1-carbamoyl-ethyl)-amide]", "IC50": "> 1000"}
{"compound": "NC(=O)[C@@H]1CCCN1C(=O)[C@@H]1CCCN1C(=O)[C@@H](O)[C@H](N)Cc1ccccc1", "note": "[(S)-1-[(S)-1-((2S,3R)-3-Amino-2-hydroxy-4-phenyl-butyryl)-pyrrolidine-2-carbonyl]-pyrrolidine-2-carboxylic acid amide]", "IC50": 2.5}
{"compound": "C[C@H](NC(=O)[C@@H]1CCCN1C(=O)C1CCCCC1C(=O)NO)C(N)=O", "note": "(stereo partly drawn) [(S)-1-(2-Hydroxycarbamoyl-cyclohexanecarbonyl)-pyrrolidine-2-carboxylic acid ((S)-1-carbamoyl-ethyl)-amide]", "IC50": "> 1000"}
{"compound": "C[C@H](NC(=O)[C@@H]1CCCN1C(=O)[C@@H]1CC(O)CN1C(=O)[C@@H](O)[C@H](N)Cc1ccccc1)C(N)=O", "note": "(stereo not given in full) [1-[1-(3-Amino-2-hydroxy-4-phenyl-butyryl)-4-hydroxy-pyrrolidine-2-carbonyl]-pyrrolidine-2-carboxylic acid (1-carbamoyl-ethyl)-amide]", "IC50": 1.6}
{"compound": "C[C@H](NC(=O)[C@@H]1CCCN1C(=O)[C@@H]1CCCN1C(=O)[C@@H](O)[C@H](N)Cc1ccccc1)C(N)=O", "note": "[(S)-1-[(S)-1-((2S,3R)-3-Amino-2-hydroxy-4-phenyl-butyryl)-pyrrolidine-2-carbonyl]-pyrrolidine-2-carboxylic acid ((S)-1-carbamoyl-ethyl)-amide]", "IC50": 0.3}
